How the values were obtained:
[1] = molecular target: T1, Recombinant human JAK1 catalytic domain (Homo sapiens, UniProt P23458); experiment: JAK1 inhibition assay; type: biochemical; details: semi-quantitative score
T1 construct: Recombinant human JAK1 catalytic domain (amino acids 850-1154; catalog number 08-144); purchased Carna Biosciences 08-144
Procedure: Recombinant human JAK1 catalytic domain (amino acids 850-1154; catalog number 08-144) was purchased from Carna Biosciences. 10 ng of JAK1 was incubated with 12.5 μg polyGT substrate (Sigma catalog number P0275) in kinase reaction buffer (15 mM Tris-HCl pH 7.5, 1 mM DTT, 0.01% Tween-20, 10 mM MgCl2, 2 μM non-radioactive ATP, 0.25 μCi 33P-gamma-ATP (GE Healthcare, catalog number AH9968) final concentrations) with or without 5 μL containing test compound or vehicle (DMSO, 1% final concentration), in a total volume of 25 μL, in a polypropylene 96-well plate (Greiner, V-bottom). After 45 min at 30° C., reactions were stopped by adding of 25 μL/well of 150 mM phosphoric acid. All of the terminated kinase reaction was transferred to prewashed (75 mM phosphoric acid) 96 well filter plates (Perkin Elmer catalog number 6005177) using a cell harvester (Perkin Elmer). Plates were washed 6 times with 300 μL per well of a 75 mM phosphoric acid solution and the bottom of the plates was sealed. 40 μL/well of Microscint-20 was added, the top of the plates was sealed and readout was performed using the Topcount (Perkin Elmer). Kinase activity was calculated by subtracting counts per minute (cpm) obtained in the presence of a positive control inhibitor (10 μM staurosporine) from cpm obtained in the presence of vehicle. The ability of a test compound to inhibit this activity was determined as: Percentage inhibition=((cpm determined for sample with test compound present−cpm determined for sample with positive control inhibitor)divided by(cpm determined in the presence of vehicle−cpm determined for sample with positive control inhibitor))*100%.
(§1) Dose dilution series were prepared for the compounds enabling the testing of dose-response effects in the JAK1 assay and the calculation of the IC50 for each compound. Each compound was routinely tested at concentration of 20 μM followed by a 1/3 serial dilution, 8 points (20 μM-6.67 μM-2.22 μM-740 nM-247 nM-82 nM-27 nM-9 nM) in a final concentration of 1% DMSO.

[2] = Microsomal stability, human; type: in vitro ADME; details: human liver microsomes, 3 μM compound, 37° C.
Procedure: (§2) A 10 mM stock solution of compound in DMSO was diluted 1000 fold in a 182 mM phosphate buffer pH 7.4 in a 96 deep well plate (Greiner, Cat no. 780285) and pre-incubated at 37° C.
(§3) 40 μL of deionised water was added to a well of a polypropylene Matrix 2D barcode labelled storage tube (Thermo Scientific) and pre-incubated at 37° C.
(§4) A Glucose-6-phosphate-dehydrogenase (G6PDH) working stock solution was prepared in 182 mM phosphate buffer pH7.4 and placed on ice before use. A co-factor containing MgCl2, glucose-6-phosphate and NADP+ was prepared in deionised water and placed on ice before use.
(§5) A final working solution containing liver microsomes (Xenotech) of a species of interest (human, mouse, rat, dog), previously described G6PDH and co-factors was prepared and this mix was incubated for no longer than 20 minutes at room temperature.
(§6) 30 μL of the pre-heated compound dilution was added to 40 μL of pre-heated water in the Matrix tubes and 30 μL of the microsomal mix was added. Final reaction concentrations were 3 μM compound, 1 mg microsomes, 0.4 U/mL GDPDH, 3.3 mM MgCl2, 3.3 mM glucose-6-phosphate and 1.3 mM NADP+.
(§7) To measure percentage remaining of compound at time zero MeOH or ACN was added (1:1) to the well before adding the microsomal mix. The plates were sealed with Matrix Sepra Seals™ (Matrix, Cat. No. 4464) and shaken for a few seconds ensure complete mixing of all components.
(§8) The samples which were not stopped are incubated at 37° C., 300 rpm and after 1 hour of incubation the reaction was stopped with MeOH or ACN (1:1).
(§9) After stopping the reaction the samples were mixed and placed on ice for 30 min to precipitate the proteins. The plates were then centrifuged 30 min at 1200 rcf at 4° C. and the supernatant was transferred to a 96 v-bottom PP plate (Greiner, 651201) for analysis on LCMS.
(§10) These plates were sealed with sealing mats (MA96RD-04S) of www.kinesis.co.uk and samples were measured at room temperature on LCMS (ZQ 1525 from Waters) under optimized conditions using Quanoptimize to determine the appropriate mass of the parent molecule.
(§11) The samples were analyzed on LCMS with a flow rate of 1 mL/min. Solvent A was 15 mM ammonia and solvent B was methanol or acetonitrile, depending on the stop solution used. The samples were run under positive ion spray on an XBridge C18 […] (2.1×30 mm) column, from Waters.
(§12) Peak area from the parent compound at time 0 was considered to be 100% remaining. The percentage remaining after 1 hour incubation was calculated from time 0 and was calculated as the percentage remaining. The solubility of the compound in the final test concentration in buffer is inspected by microscope and results are reported.
(§13) The data on microsomal stability are expressed as a percentage of the total amount of compound remaining after 60 minutes.

[3] = Microsomal stability, rat; type: in vitro ADME; details: rat liver microsomes, 3 μM compound, 37° C.
Procedure: as §2, §3, §4, §5, §6, §7, §8, §9, §10, §11, §12, §13

[4] = molecular target: T2, Recombinant human JAK2 catalytic domain (Homo sapiens, UniProt O60674); experiment: JAK2 inhibition assay; type: biochemical; details: semi-quantitative score
T2 construct: Recombinant human JAK2 catalytic domain (amino acids 808-1132; catalog number PV4210); purchased Invitrogen PV4210
T2 sequence (O60674 808-1132): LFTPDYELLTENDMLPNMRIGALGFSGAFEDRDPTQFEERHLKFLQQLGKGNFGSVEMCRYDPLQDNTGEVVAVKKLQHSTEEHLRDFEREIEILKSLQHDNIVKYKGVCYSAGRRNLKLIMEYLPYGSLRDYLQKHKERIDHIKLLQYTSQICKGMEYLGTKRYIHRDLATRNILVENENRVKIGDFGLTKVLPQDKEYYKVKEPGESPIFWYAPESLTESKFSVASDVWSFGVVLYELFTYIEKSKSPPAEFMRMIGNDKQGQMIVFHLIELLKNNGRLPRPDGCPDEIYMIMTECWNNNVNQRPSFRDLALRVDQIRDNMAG
Procedure: Recombinant human JAK2 catalytic domain (amino acids 808-1132; catalog number PV4210) was purchased from Invitrogen. 0.025 mU of JAK2 was incubated with 2.5 μg polyGT substrate (Sigma catalog number P0275) in kinase reaction buffer (5 mM MOPS pH 7.5, 9 mM MgAc, 0.3 mM EDTA, 0.06% Brij and 0.6 mM DTT, 1 μM non-radioactive ATP, 0.25 μCi 33P-gamma-ATP (GE Healthcare, catalog number AH9968) final concentrations) with or without 5 μL containing test compound or vehicle (DMSO, 1% final concentration), in a total volume of 25 μL, in a polypropylene 96-well plate (Greiner, V-bottom). After 90 min at 30° C., reactions were stopped by adding of 25 μL/well of 150 mM phosphoric acid. All of the terminated kinase reaction was transferred to prewashed (75 mM phosphoric acid) 96 well filter plates (Perkin Elmer catalog number 6005177) using a cell harvester (Perkin Elmer). Plates were washed 6 times with 300 μL per well of a 75 mM phosphoric acid solution and the bottom of the plates was sealed. 40 μL/well of Microscint-20 was added, the top of the plates was sealed and readout was performed using the Topcount (Perkin Elmer). Kinase activity was calculated by subtracting counts per minute (cpm) obtained in the presence of a positive control inhibitor (10 μM staurosporine) from cpm obtained in the presence of vehicle. The ability of a test compound to inhibit this activity was determined as: Percentage inhibition=((cpm determined for sample with test compound present−cpm determined for sample with positive control inhibitor) divided by (cpm determined in the presence of vehicle−cpm determined for sample with positive control inhibitor))*100%.
as §1, with “JAK2” for “JAK1”

MMP13 = experiment: OSM/IL-1β signaling assay (SW1353 cells); type: cell-based; details: Homo sapiens, 25 ng/mL OSM and 1 ng/mL IL-1β, 48 hours
Procedure: The cells were seeded in 96 well plates at 15,000 cells/well in a volume of 120 μL DMEM (Invitrogen) containing 10% (v/v) FBS and 1% penicillin/streptomycin (InVitrogen) incubated at 37° C. 5% CO2. Cells were preincubated with 15 μL compound in M199 medium with 2% DMSO 1 hr before triggering with 15 μL OSM and IL-1β to reach 25 ng/mL OSM and 1 ng/mL IL-1β, and MMP13 levels were measured in conditioned medium 48 hours after triggering. MMP13 activity was measured using an antibody capture activity assay. For this purpose, 384 well plates (NUNC, 460518, MaxiSorb black) were coated with 35 μL of a 1.5 μg/mL anti-human MMP13 antibody (R&D Systems, MAB511) solution for 24 hours at 4° C. After washing the wells 2 times with PBS+0.05% Tween, the remaining binding sites were blocked with 100 μL 5% non-fat dry milk (Santa Cruz, sc-2325, Blotto) in PBS for 24 hours at 4° C. […] Next the wells were washed twice with PBS+0.05% Tween followed by MMP13 activation by addition of 35 μL of a 1.5 mM 4-Aminophenylmercuric acetate (APMA) (Sigma, A9563) solution and incubation at 37° C. for 1 hour. […] After incubation for 24 hours at 37° C. fluorescence of the converted substrate was measured in a Perkin Elmer Wallac EnVision 2102 Multilabel Reader (wavelength excitation: 320 nm, wavelength emission: 405 nm).

[5] = Caco2 permeability, bi-directional; type: in vitro ADME; details: human, Caco-2; 10 μM, 1 hour, pH 7.4
Procedure: Bi-directional Caco-2 assays were performed as described below. Caco-2 cells were obtained from European Collection of Cell Cultures (ECACC, cat 86010202) and used after a 21 day cell culture in 24-well Transwell plates (Fisher TKT-545-020B).
2×10^5 cells/well were seeded in plating medium consisting of DMEM+GlutaMAXI+1% NEAA+10% FBS (FetalClone II)+1% Pen/Strep. The medium was changed every 2-3 days.
Test and reference compounds (propranolol and rhodamine 123 or vinblastine, all purchased from Sigma) were prepared in Hanks' Balanced Salt Solution containing 25 mM HEPES (pH 7.4) and added to either the apical (125 μL) or basolateral (600 μL) chambers of the Transwell plate assembly at a concentration of 10 μM with a final DMSO concentration of 0.25%.
50 μM Lucifer Yellow (Sigma) was added to the donor buffer in all wells to assess integrity of the cell layers by monitoring Lucifer Yellow permeation. As Lucifer Yellow (LY) cannot freely permeate lipophilic barriers, a high degree of LY transport indicates poor integrity of the cell layer.
After a 1 hour incubation at 37° C. while shaking at an orbital shaker at 150 rpm, 70 μL aliquots were taken from both apical (A) and basal (B) chambers and added to 100 μLl 50:50 acetonitrile:water solution containing analytical internal standard (0.5 μM carbamazepine) in a 96 well plate.
Lucifer yellow was measured with a Spectramax Gemini XS (Ex 426 nm and Em 538 nm) in a clean 96 well plate containing 150 μL of liquid from basolateral and apical side.
Concentrations of compound in the samples were measured by high performance liquid-chromatography/mass spectroscopy (LC-MS/MS).
The Efflux ratios, as an indication of active efflux from the apical cell surface, were calculated using the ratio of PappB>A/PappA>B.

TNF release = experiment: Septic shock model (LPS); type: in vivo, mice; details: 3 mg/kg
Procedure: Injection of lipopolysaccharide (LPS) induces a rapid release of soluble tumour necrosis factor (TNF-alpha) into the periphery. This model is used to analyse prospective blockers of TNF release in vivo.
Six BALB/cJ female mice (20 g) per group were treated at the intended dosing once, po. Thirty minutes later, LPS (15 μg/kg; E. Coli serotype 0111:B4) was injected ip. Ninety minutes later, mice were euthanized and blood was collected. Circulating TNF alpha levels were determined using commercially available ELISA kits. Dexamethasone (5 μg/kg) was used as a reference anti-inflammatory compound. Selected compounds are tested at one or multiple doses, e.g. 3 and/or 10 and/or 30 mg/kg, po.

T1 sequence (P23458 850-1154): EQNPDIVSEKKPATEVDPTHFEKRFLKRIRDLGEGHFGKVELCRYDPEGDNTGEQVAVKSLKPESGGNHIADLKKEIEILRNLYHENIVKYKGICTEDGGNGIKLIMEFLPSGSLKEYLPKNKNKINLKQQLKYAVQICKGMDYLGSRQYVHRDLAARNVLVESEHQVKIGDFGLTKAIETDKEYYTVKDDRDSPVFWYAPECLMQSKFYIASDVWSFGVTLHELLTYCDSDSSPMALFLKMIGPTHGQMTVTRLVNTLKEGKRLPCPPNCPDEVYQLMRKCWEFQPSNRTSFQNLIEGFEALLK

Structure (SMILES) | IC50 [1] [nM] | Microsomal stability Human (%), compound remaining after 60 minutes [2] [%] | Microsomal stability Rat (%), compound remaining after 60 minutes [3] [%] | IC50 [4] [nM] | EC50 (MMP13) [nM] | Papp A→B at 1 h, 10 μM [5] [×10⁻⁶ cm/s] | activity in the septic shock model (TNF release)
O=C(Nc1nc2cccc(-c3ccc(OCc4ccc(N5CCCC5)nc4)cc3)n2n1)C1CC1 [Compound 174, N-(5-(4-((6-(pyrrolidin-1-yl)pyridin-3-yl)methoxy)phenyl)-[1,2,4]triazolo[1,5-a]pyridin-2-yl)cyclopropanecarboxamide] | > 501 | – | – | – | – | – | –
O=C(Nc1nc2cccc(-c3cccc(OCc4ccccc4)c3)n2n1)C1CC1 [Compound 14, N-(5-(3-(benzyloxy)phenyl)-[1,2,4]triazolo[1,5-a]pyridin-2-yl)cyclopropanecarboxamide] | – | – | – | > 501 | – | – | –
Cc1ccc(COc2ccc(-c3cccc4nc(NC(=O)C5CC5)nn34)cc2)cn1 [Compound 197, Cyclopropanecarboxylic acid {5-[4-(6-methyl-pyridin-3-ylmethoxy)-phenyl]-[1,2,4]triazolo[1,5-a]pyridin-2-yl}-amide] | 0.1 to 100 | 46.6 | 59.41 | 1 to 100 | – | – | active
CC(=O)Nc1nc2cccc(-c3ccc(OCc4ccccc4)cc3)n2n1 [Compound 163, N-(5-(4-(benzyloxy)phenyl)-[1,2,4]triazolo[1,5-a]pyridin-2-yl)acetamide] | 0.1 to 100 | 53.64 | 39.78 | – | – | 13.4 | –

Now from value to compound, other results behind:

IC50 [1] [nM] | Microsomal stability Human (%), compound remaining after 60 minutes [2] [%] | Microsomal stability Rat (%), compound remaining after 60 minutes [3] [%] | IC50 [4] [nM] | EC50 (MMP13) [nM] | Papp A→B at 1 h, 10 μM [5] [×10⁻⁶ cm/s] | Structure (SMILES) | activity in the septic shock model (TNF release)
0.1 to 100 | 2.13 | 25.64 | – | – | – | COC(=O)c1ccc(COc2ccc(-c3cccc4nc(NC(=O)C5CC5)nn34)cc2)nc1 [Compound 190] | –
0.1 to 100 | 65.8 | 72.45 | 1 to 100 | – | – | O=C(Nc1nc2cccc(-c3ccc(OCc4ccc(Cl)nc4)cc3)n2n1)C1CC1 [Compound 198, Cyclopropanecarboxylic acid {5-[4-(6-chloro-pyridin-3-ylmethoxy)-phenyl]-[1,2,4]triazolo[1,5-a]pyridin-2-yl}-amide] | –
0.1 to 100 | 19.33 | 19.23 | – | – | – | O=C(Nc1nc2cccc(-c3ccc(NCc4cccnc4)cc3)n2n1)C1CC1 [Compound 182, N-(5-(4-(pyridin-3-ylmethylamino)phenyl)-[1,2,4]triazolo[1,5-a]pyridin-2-yl)cyclopropanecarboxamide] | –
0.1 to 100 | 127.2 | 77.62 | – | > 1000 | 12.5 | NC(=O)c1ccc(COc2ccc(-c3cccc4nc(NC(=O)C5CC5)nn34)cc2)cn1 [Compound 192, 5-{4-[2-(Cyclopropanecarbonyl-amino)-[1,2,4]triazolo[1,5-a]pyridin-5-yl]-phenoxymethyl}-pyridine-2-carboxylic acid amide] | –
0.1 to 100 | 43 | 14 | – | – | 25.8 | O=C(Nc1nc2cccc(-c3ccc(OCc4ccccc4)c(F)c3)n2n1)C1CC1 [Compound 15, N-(5-(4-(benzyloxy)-3-fluorophenyl)-[1,2,4]triazolo[1,5-a]pyridin-2-yl)cyclopropanecarboxamide] | –
